Reference: ChEMBL document CHEMBL1128468, “Amino acid side chain descriptors for quantitative structure-activity relationship studies of peptide analogues” (J Med Chem, 1995)

Target: T1, Oxytocin receptor (Rattus norvegicus, UniProt P70536)
T1 sequence (P70536 whole entry): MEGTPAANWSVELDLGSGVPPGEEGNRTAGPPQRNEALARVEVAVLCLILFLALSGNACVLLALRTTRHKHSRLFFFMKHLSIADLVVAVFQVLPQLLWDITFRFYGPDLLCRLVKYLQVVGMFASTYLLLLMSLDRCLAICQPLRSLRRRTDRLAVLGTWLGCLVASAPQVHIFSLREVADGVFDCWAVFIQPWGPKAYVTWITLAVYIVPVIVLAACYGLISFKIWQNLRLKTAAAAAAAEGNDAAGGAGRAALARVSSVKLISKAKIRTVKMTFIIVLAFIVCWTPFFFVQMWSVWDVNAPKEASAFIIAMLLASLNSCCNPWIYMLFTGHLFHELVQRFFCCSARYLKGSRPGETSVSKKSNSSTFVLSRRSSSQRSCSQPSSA
Experiment: Biological activity against Oxytocin receptor in rat

pA2: 4.95
SMILES: CC[C@H](C)[C@@H]1NC(=O)[C@@H](Cc2c[nH]c3ccccc23)NC(=O)CC2(CCCCC2)SSC[C@@H](C(=O)N2CCC[C@H]2C(=O)N[C@@H](CCCN=C(N)N)C(=O)NCC(N)=O)NC(=O)[C@H](CC(N)=O)NC(=O)[C@@H]([C@H](C)O)NC1=O
